# Assay results reported in EP0791056B1, “LIPID-CLEAVAGE ENZYME COMPLEX” (priority 1994, dated 1996).
# What was measured:
# [1] = test system: Zellhomogenate humaner PBL; assay: Enzymatic cleavage of [14C]-AZT-DMDOPE by cell homogenates, TLC of metabolites; assay type: in vitro ADME, human
# Method: Die Spaltung von AZT-DMDOPE wurde mit Hilfe eines Enzym-Assays mit [^14C]-AZT-DMDOPE und AZT-DMDOPE als Substrat untersucht. Als Enzymquelle wurden zunächst Zellhomogenate von CEM-SS-Zellen und humanen PBL verwendet. Tab.
# Letztere wurden sowohl nach Stimulation mit PHA-M als auch in nichtstimuliertem Zustand direkt nach ihrer Isolierung homogenisiert und im Enzym-Assay eingesetzt.
# Zur Herstellung der Zellhomogenate wurden Zellsuspensionen mit einer Dichte von 5 x10^7 Zellen/ml 50 mM Tris (pH 7.4) im Glashomogenisator mechanisch aufgeschlossen. Der Zellaufschluß wurde hierbei im Umkehr-Phasenkontrast-Mikroskop optisch kontrolliert. Tab.
# Zunächst wurde 1 ml dieses Zellhomogenales in dem Enzym-Assay ohne vorherige Bestimmung der Proteinkonzentration eingesetzt.
# Zur Gewährleistung einer Substratsättigung wurden weitere 50 nmol der nichtradioaktiv markierten Verbindung hinzugefügt. [^14C]-AZT-DMDOPE trägt die radioaktive Markierung im Thioetherlipidteil und erlaubt somit eine eindeutige Identifikation der potentiellen Metabolits [^14-C]DMDOP.
# Die Ansätze wurden für 1, 3, 6 und 24 h im Wasserbad bei 37 °C inkubiert. Als Vergleich wurde ein Ansatz ohne Zugabe von Zellhomogenat mitgeführt. Anschließend wurden die Spaltprodukte mit Diethylether:2-Propanol (9:1, v/v) extrahiert und dünnschichtchromatographisch im IBA- und IBAE-System analysiert (Abb. 18). […]
# stimulierten humanen PBL = assay: Intracellular concentrations of AZT and AZT nucleotides (radioimmunoassay) in stimulated human PBL; conditions: for maximale intrazelluläre Konzentrationen an freiem AZT: without alkaline phosphatase; for maximale Konzentrationen an AZT und phosphorylierten AZT-Nukleotiden: with alkaline phosphatase
# Description: Zur Bestimmung der intrazellulären Konzentrationen an AZT und/oder AZT-Nukleotiden nach Inkubation mit AZT-DMDOPE bzw. AZT wurden humane PBL aus "Buffy coat" isoliert.
# Hierfür wurde "Buffy-coat" von gesunden Spendern gemischt und durch Zentrifugation in einem isotonischen Medium mit einer Dichte von 1.077 g/ml fraktioniert. Da mononukleare Blutzellen (Monozyten und Lymphozyten) eine geringere Dichte als Erythrozyten und polymorphkernige Granulozyten haben, bilden sie einen Ring an der Grenze zwischen Trennmedium und Probe und können mit Hilfe einer Pipette abgenommen werden. Erythrozyten und polymorphkernige Granulozyten sedimentieren aufgrund ihrer höheren Dichte durch das Medium und lassen sich somit von PBL separieren. Zur Stimulation der Zellproliferation wurde Phytohämaglutinin A (Mukoprotein) (PHA-M), der mitogene Lektinextrakt aus der roten Feuerbohne (Phaseolus vulgaris), eingesetzt. Phytohämagglutinin ist eine Familie von 5 Isolektinen, die als Tetramere vorliegen. Die Untereinheiten bestehen aus einem lymphozytenreaktiven Typ-L und einem erythrozytenreaktiven Typ-E. Typ-L hat eine hohe Affinität zu Lymphozytenoberflächenrezeptoren und ist somit verantwortlich für die mitogenen Eigenschaften. Die Stimulation der Lymphozyten wurde in KPMI 1640 Komplettmedium III für 72 h bei 37 °C und 5 % CO2 durchgeführt. Nach Beendigung der Stimulation wurden zur Erhöhung der Zellzahl die Zellen für weitere 24 h in RPMI 1640 Komplettmedium IV kultiviert.
# Zur Bestimmung der intrazellulären Konzentrationen an AZT und AZT-Nukleotiden wurden die Zellen in RPMI 1640 Komplettmedium II mit einer Dichte von 1 x 10^6 Zellen/ml in Gewebekulturflaschen (50 ml/25 cm^2) überführt, und in Anwesenheit von 0.03 bzw. 0.3 µg AZT/ml (Charge 15) und 1 bzw. 10 µg AZT-DMDOPE/ml für 1 - 24 h inkubiert.
# Die Kulturen wurden anschließend für 1, 3, 6 und 24 h bei 37 °C und 5 % CO2 inkubiert. AZT und seine Nukleotide wurden anschließend mit 60 % Methanol extrahiert. Die extrahierten Nukleotide wurden mit alkalischer Phosphatase quantitativ zu AZT dephosphoryliert, da nur AZT, nicht jedoch die entsprechenden Nukleotide mit Hilfe eines Radioimmuno-Assays detektiert werden kann.
# Die Konzentrationen an intrazellulärem AZT, die mit Hilfe des Radioimmuno-Assays bestimmt wurden, setzten sich dementsprechend aus der des AZT und den der AZT-Nukleotide zusammen. Eine separate Quantifizierung der Konzentrationen an AZT-MP, AZT-DP und AZT-TP wurde nicht durchgeführt.
# Diese Experimente wurden an stimulierten humanen PBL durchgeführt.
# Hierfür wurden Zellsuspensionen mit einer Dichte von 10^6 Zellen/ml mit 1 bzw. 10 µg AZT-DMDOPE/ml für 6 bzw. 24 h bei 37 °C und 5 % CO2 inkubiert.
# Zur quantitativen Bestimmung von AZT wurde ein kommerzieller ^125J-AZT RIA Test-Kit verwendet. Puffer und Lösungen wurden gemäß den Angaben des Herstellers angesetzt und im Test-Kit eingesetzt. Die Reaktionsansätze wurden nach untenstehendem Schema (Tab. ) pipettiert, vorsichtig gemischt und für 2 h bei Raumtemperatur inkubiert. Anschließend wurden zur Präzipitation des Komplexes aus ^125J-AZT und des AZT-Antikörpers (aus Kaninchen) 500 µl des Ziege-Anti-Kaninchen-Antikörpers hinzugefügt. Die Ansätze wurden gemischt und erneut bei Raumtemperatur für 30 min inkubiert.
# [2] = test system: nichtstimulierten humanen PBL; assay: Intracellular concentrations of AZT and AZT nucleotides (radioimmunoassay) in non-stimulated human PBL; assay type: in vitro ADME
# Description: AZT wurden humane PBL aus "Buffy coat" isoliert.
# [3] = 10 µg AZT-DMDOPE/ml, after 24 h
structure (smiles),measurement,setting,value
"CCCCCCCCCCCCSCC(COP(=O)(O)OC[C@H]1O[C@@H](n2cc(C)c(=O)[nH]c2=O)C[C@@H]1N=[N+]=[N-])OCCCCCCCCCC (some centres unmarked) [AZT-DMDOPE, (3'-Desoxy-3'-azidothymidin)-5'-phosphorsäure-(3-dodecyl-mercapto-2-decyloxy)-propylester]",Metabolisierung von AZT-DMDOPE,[1],zu DMDOP und AZT-MP metabolisiert
same,maximale intrazelluläre Konzentrationen an freiem AZT,"stimulierten humanen PBL; 1 µg AZT-DMDOPE/ml, after 6 h",0.03 ng/10^6 Zellen
same,maximale Konzentrationen an AZT und phosphorylierten AZT-Nukleotiden,"stimulierten humanen PBL; 1 µg AZT-DMDOPE/ml, after 24 h",3.85 ng/10^6 Zellen
same,maximale Konzentrationen an AZT und phosphorylierten AZT-Nukleotiden,stimulierten humanen PBL; [3],6.41 ng/10^6 Zellen
same,maximale intrazelluläre Konzentrationen an freiem AZT,stimulierten humanen PBL; [3],0.15 ng/10^6 Zellen
same,"intrazellulärer Spiegel an AZT und seiner Nukleotiden, Verlauf","stimulierten humanen PBL; 1 bzw. 10 µg AZT-DMDOPE/ml, whole incubation time 1 - 24 h",stetig steigender
same,intrazelluläre Spiegel im Vergleich zu AZT,"stimulierten humanen PBL; after 24 h incubation, equipotent concentrations",identisch
same,intrazelluläre Konzentrationen an AZT und AZT-Nukleotiden im Vergleich zur äquipotenten Konzentration an AZT,"stimulierten humanen PBL; incubation time 18 - 48 h, further experiments",größer
same,maximale intrazelluläre Konzentrationen an AZT und AZT-Nukleotiden,[2]; 1 µg AZT-DMDOPE/ml,0.62 ng/10^6 Zellen
same,maximale intrazelluläre Konzentrationen an AZT und AZT-Nukleotiden,[2]; 10 µg AZT-DMDOPE/ml,4.74 ng/10^6 Zellen
same,intrazelluläre Konzentrationen an AZT und AZT-Nukleotiden im Vergleich zur äquipotenten Konzentration an AZT,[2]; whole incubation time,größer
